This experiment concerns the target T1, human A2a receptor (Homo sapiens, UniProt P29274).
T1 construct: purchased Perkin-Elmer RBHA2AM400UA; host or cells: HEK293 cells (membranes)
Briefly: Competition binding assay using Scintillation Proximity technology (A2a activity). The note with it: membranes from HEK293 cells expressing the human A2a receptor; 0.5 nM tritiated ligand; Cheng-Prusoff. How it is done:
Binding affinities of compounds of the invention for the human A2a receptor were determined in a competition binding assay using Scintillation Proximity technology. Thus, […] from HEK293 cells expressing the human A2a receptor were incubated with a compound of the invention at concentrations ranging from 3000 nM to 0.15 nM in a reaction mixture containing also 0.5 nM of a tritiated form of 5-amino-7-[2-phenethyl]-2-(furan-2-yl)-7H-pyrazolo[4,3-e][1,2,4]triazolo[1,5-c]pyrimidine (the tritiated compound) and 100 μg of wheat germ agglutin-coated yttrium silicate SPA beads for one hour at room temperature with agitation. The beads were then allowed to settle to the bottom of the wells for 1 hr, after which the membrane-associated radioactivity was determined by scintillation counting in a TopCount microplate reader. Ki values were determined using the Cheng-Prusoff equation.
HEK293 cells expressing the human, rat, dog or monkey adenosine 2a receptor (Purchased from Perkin-Elmer # RBHA2AM400UA).
The Tritiated compound was prepared according to published methods.
Wheat germ agglutinin-coated yttrium silicate SPA beads (GE Healthcare # RPNQ0023). Dilute to 25 mg/ml in assay buffer.
Assay Buffer was prepared using Dulbecco's calcium and magnesium free phosphate buffered saline+10 mM MgCl2
Adenosine deaminase from calf intestine, 10 mg/2 ml (Roche #10 102 105 001).
A2a antagonist standard (9-chloro-1-(2-furanyl)-[1,2,4]triazolo1,5-c]quinazolin-5-amine from Tocris Bioscience)
Make eight 1:3 serial dilutions in 100% DMSO from a 3 mM compound stock
Transfer 50 nl of compound into a 384-well OptiPlate (Perkin Elmer).
Typically, final concentrations of compound used in the assay ranged from 3000 nM to 0.152 nM.
Dilute a solution of the Tritiated compound to 1.25 nM in assay buffer. This is a 2.5× solution. The final concentration in the assay is 0.5 nM. Calculate the concentration by counting two 5 μl aliquots.
Use 0.25 ug of membrane/well. Dilute membranes to 9.7 μg/ml in assay buffer. Treat with 20 ug/ml adenosine deaminase (ADA) for 15 minutes at room temperature to degrade endogenous adenosine.
Use 100 μg/well wheat germ agglutinin-coated yttrium silicate SPA beads.
Mix ADA-treated membranes and SPA beads together for 30 min prior to assay.
To the Perkin-Elmer Optiplate-384 containing the compound titration add 20 μl of 2.5× solution of the Tritiated compound and 30 μl of the membrane-bead mixture. Incubate for one hour at room temperature with agitation.
Include total binding (assay buffer+1% DMSO) and non-specific binding (CGS15943, 1 μM) wells.
Allow the beads to settle for one hour.
A curve fitting program (i.e., Prism, Activity Base, Chemcart) is used to determine the EC50. The Ki value is calculated using the Cheng-Prusoff equation. K i=EC50/(1+(radioligand concentration/Kd))
In general terms: Scintillation proximity formats need no separation of bound from free tracer.

T1 sequence (P29274 whole entry): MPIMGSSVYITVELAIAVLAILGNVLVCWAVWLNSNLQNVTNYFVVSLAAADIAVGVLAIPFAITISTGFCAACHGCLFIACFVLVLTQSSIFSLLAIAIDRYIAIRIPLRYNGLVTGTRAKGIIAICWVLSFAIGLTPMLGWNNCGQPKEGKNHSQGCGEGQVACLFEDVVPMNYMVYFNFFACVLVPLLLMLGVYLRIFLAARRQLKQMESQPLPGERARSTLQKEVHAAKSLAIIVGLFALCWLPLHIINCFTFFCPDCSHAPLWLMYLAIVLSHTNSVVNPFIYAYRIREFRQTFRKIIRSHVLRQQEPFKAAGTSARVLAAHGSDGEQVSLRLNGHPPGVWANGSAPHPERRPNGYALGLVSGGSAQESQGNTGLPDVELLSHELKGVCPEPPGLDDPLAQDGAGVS

`COc1cccc2c1nc(N)n1nc(C(=O)N3CCCCC3)cc21` [Ex-72, (5-amino-7-methoxypyrazolo[1,5-c]quinazolin-2-yl)(piperidin-1-yl)methanone] showed a Ki of 0.037 µM.

In the case of `COc1cccc2c1nc(N)n1nc(C(=O)N3CCN(Cc4ccc(F)cc4)CC3)cc21` [Ex-73, (5-amino-7-methoxypyrazolo[1,5c]-quinazolin-2-yl)(4-(4-fluorobenzyl)-piperazin-1-yl)methanone], the Ki was determined as 0.011 µM. For the compound `COc1cccc2c1nc(N)n1nc(C(=O)N3CCCC3)cc21` [Ex-74, (5-amino-7-methoxypyrazolo[1,5-c]quinazolin-2-yl)(pyrrolidin-1-yl)methanone], the Ki was determined as 0.005 µM. The value for `COc1cccc2c1nc(N)n1nc(C(=O)N3CCN(C(=O)OC(C)(C)C)CC3)cc21` [Ex-75, tert-butyl 4-(5-amino-7-methoxypyrazolo[1,5-c]quinazoline-2-carbonyl)piperazine-1-carboxylate] was 0.02 µM; that for `COc1cccc2c1nc(N)n1nc(C(=O)N3CCNCC3)cc21` [Ex-76, (5-amino-7-methoxypyrazolo[1,5-c]quinazolin-2-yl)(piperazin-1-yl)methanone] was 0.3 µM. The value for `COc1cccc2c1nc(N)n1nc(C(=O)NCc3ccc(F)cc3F)cc21` [Ex-77, 5-amino-N-(2,4-difluorobenzyl)-7-methoxypyrazolo[1,5-c]quinazoline-2-carboxamide] was 0.002 µM. The value for `COc1cccc2c1nc(N)n1nc(C(=O)N3CCN(c4ccc(F)cc4F)CC3)cc21` [Ex-78, (5-amino-7-methoxypyrazolo[1,5-c]quinazolin-2-yl)(4-(2,4-difluorophenyl)piperazin-1-yl)methanone] was 0.0003 µM.

Turning to `COc1cccc2c1nc(N)n1nc(C(=O)NCc3ccc(Br)cc3F)cc21` [Ex-79, 5-amino-N-(4-bromo-2-fluorobenzyl)-7-methoxypyrazolo[1,5-c]quinazoline-2-carboxamide], the Ki stood at 0.001 µM. On to `COc1cccc2c1nc(N)n1nc(C(=O)Nc3ccccc3)cc21` [Ex-80, 5-amino-7-methoxy-N-phenylpyrazolo[1,5-c]quinazoline-2-carboxamide], for which the affinity corresponds to a Ki of 0.003 µM. The value for `COc1cccc2c1nc(N)n1nc(C(=O)N(C)Cc3ccccc3)cc21` [Ex-81, 5-amino-N-benzyl-7-methoxy-N-methylpyrazolo[1,5-c]quinazoline-2-carboxamide] was 0.004 µM; that for `COc1cccc2c1nc(N)n1nc(C(=O)N(C)Cc3cccc4cccnc34)cc21` [Ex-82, 5-amino-7-methoxy-N-methyl-N-(quinolin-8-ylmethyl)pyrazolo[1,5-c]quinazoline-2-carboxamide] was 0.007 µM. The value for `COc1cccc2c1nc(N)n1nc(C(=O)N3CCC4(CCN(C(=O)OC(C)(C)C)C4)CC3)cc21` [Ex-83, tert-butyl 8-(5-amino-7-methoxy-pyrazolo[1,5-c]quinazoline-2-carbonyl)-2,8-diazaspiro[4.5]decane-2-carboxylate] was 0.08 µM. The value for `COc1cccc2c1nc(N)n1nc(C(=O)N3CCC4(CCNC4)CC3)cc21` [Ex-84, (5-amino-7-methoxypyrazolo[1,5-c]quinazolin-2-yl)(2,8-diazaspiro[4.5]decan-8-yl)methanone] was 0.245 µM; that for `COc1cccc2c1nc(N)n1nc(C(=O)N3CCC4(CCN(C(=O)OC(C)(C)C)C4)C3)cc21` (centres unmarked) [Ex-85, tert-butyl 7-(5-amino-7-methoxypyrazolo[1,5-c]quinazoline-2-carbonyl)-2,7-diazaspiro[4.4]nonane-2-carboxylate] was 0.011 µM; that for `COc1cccc2c1nc(N)n1nc(C(=O)N3CCC4(CCNC4)C3)cc21` (centres unmarked) [Ex-86, (5-amino-7-methoxypyrazolo[1,5-c]quinazolin-2-yl)(2,7-diazaspiro[4.4]nonan-2-yl)methanone] was 0.077 µM. In turn, `COc1cccc2c1nc(N)n1nc(C(=O)N3CCC4(CCN(C(C)=O)C4)C3)cc21` (centres unmarked) [Ex-87, 1-(7-(5-amino-7-methoxypyrazolo[1,5-c]quinazoline-2-carbonyl)-2,7-diazaspiro[4.4]nonan-2-yl)ethan-1-one] showed a Ki of 0.009 µM. The value for `COC(=O)N1CCC2(CCN(C(=O)c3cc4c5cccc(OC)c5nc(N)n4n3)C2)C1` (centres unmarked) [Ex-88, methyl 7-(5-amino-7-methoxypyrazolo[1,5-c]quinazoline-2-carbonyl)-2,7-diazaspiro[4.4]nonane-2-carboxylate] was 0.007 µM; that for `CCN1CCC2(CCN(C(=O)c3cc4c5cccc(OC)c5nc(N)n4n3)C2)C1` (centres unmarked) [Ex-89, (5-amino-7-methoxypyrazolo[1,5-c]quinazolin-2-yl)(7-ethyl-2,7-diazaspiro[4.4]nonan-2-yl)methanone] was 0.043 µM.

`COc1cccc2c1nc(N)n1nc(C(=O)N3CCC4(CCN(Cc5ccccc5)C4)C3)cc21` (centres unmarked) [Ex-90, (5-amino-7-methoxypyrazolo[1,5-c]quinazolin-2-yl)(7-benzyl-2,7-diazaspiro[4.4]nonan-2-yl)methanone] displayed a Ki of 0.05 µM. The value for `COc1cccc2c1nc(N)n1nc(C(=O)NCc3cccc4cccnc34)cc21` [Ex-91, 5-amino-7-methoxy-N-(quinolin-8-ylmethyl)pyrazolo[1,5-c]quinazoline-2-carboxamide] was 0.0004 µM; that for `COc1cccc2c1nc(N)n1nc(-c3nc(-c4ccccc4)no3)cc21` [Ex-92, 7-methoxy-2-(3-phenyl-1,2,4-oxadiazol-5-yl)pyrazolo[1,5-c]quinazolin-5-amine] was 0.101 µM; that for `COc1cccc2c1nc(N)n1nc(-c3nc(Cc4ccccc4)no3)cc21` [Ex-93, 2-(3-benzyl-1,2,4-oxadiazol-5-yl)-7-methoxypyrazolo[1,5-c]quinazolin-5-amine] was 0.045 µM.

As for `Nc1nc2ccccc2c2cc(Cc3cccc4cccnc34)nn12` [Ex-94, 2-(quinolin-8-ylmethyl)pyrazolo[1,5-c]quinazolin-5-amine], the Ki came to 0.01 µM. The value for `Nc1nc2ccccc2c2cc(Cc3ccnc4ccccc34)nn12` [Ex-95, 2-(quinolin-4-ylmethyl)pyrazolo[1,5-c]quinazolin-5-amine] was 0.068 µM; that for `Nc1nc2ccccc2c2cc(Cc3ccccc3N3CCOCC3)nn12` [Ex-96, 2-(2-morpholinobenzyl)pyrazolo[1,5c]-quinazolin-5-amine] was 0.053 µM; that for `Nc1nc2ccccc2c2cc(Cc3ccccc3CN3CCOCC3)nn12` [Ex-97, 2-(2-(morpholinomethyl)-bcnzyl)pyrazolo[1,5-c]-quinazolin-5-amine] was 0.051 µM. `COc1cccc2c1nc(N)n1nc(-c3nnc(-c4cccc5cccnc45)o3)cc21` [Ex-100, 7-methoxy-2-(5-(quinolin-8-yl)-1,3,4-oxadiazol-2-yl)pyrazolo[1,5-c]quinazolin-5-amine] registered a Ki of 0.019 µM.

Turning to `COc1cccc2c1nc(N)n1nc(-c3nnc(N4CCOCC4)o3)cc21` [Ex-101, 7-methoxy-2-(5-morpholino-1,3,4-oxadiazol-2-yl)pyrazolo[1,5-c]quinazolin-5-amine], affinity was put at a Ki of 0.039 µM.

As for `COc1cccc2c1nc(N)n1nc(-c3nnc(N4CCN(c5ccccc5)CC4)o3)cc21` [Ex-102, 7-methoxy-2-(5-(4-phenylpiperazin-1-yl)-1,3,4-oxadiazol-2-yl)pyrazolo[1,5-c]quinazolin-5-amine], the Ki was found to be 0.033 µM.

A word on the Ki: it is a measure of affinity in units of concentration, obtained from inhibition or displacement. A high value points to lower affinity.

The values above are taken from patent US10688082B2, “Aminopyrazine compounds with A2A antagonist properties” (Merck Sharp & Dohme Corp., priority 2015, dated 2020).
